Results on seven compounds are retold here after patent EP2650000A1, “Utilization of copper complexes involving 2-phenyl-3-hydroxy-4(1H)-quinolinone and 1,10-phenanthroline derivatives for the preparation of drugs for the treatment of tumour diseases” (Univerzita Palackeho, priority 2012, dated 2013).

Common to all, as to type: cell-based
Test [1] deals with human lung adenocarcinoma cell line (A549). In words: MTT assay, in vitro anticancer activity, A549. The conditions noted are these: A549 cells, 24 hours incubation, read-out: inhibition concentrations IC50. As for the experimental part: (§1) The in vitro anticancer activity of the prepared complexes listed as the examples below was determined by the MTT assay. The method is based on the ability of metabolic-active cells to reduce (by mitochondrial dehydrogenases) the yellow tetrazolium dye (3-(4,5-dimethylthiazol-2-yl)-2,5-diphenyltetrazolium bromide (MTT)) to the blue formazane end-product. Because the reduction proceeds only in the living cells, the cytotoxicity of various compounds can be determined using this process. The water-insoluble formazane is quantified after dissolving in dimethyl sulfoxide (DMSO) with the solution of ammonia on a spectrophotometer (ELISA reader). The in vitro anticancer activity testing was performed on the following human cancer cell lines: lung adenocarcinoma (A549), cervix epitheloid carcinoma (HeLa), malignant melanoma (G361), ovarian carcinoma (A2780), cisplatin-resistant ovarian carcinoma (A2780R) and prostate carcinoma (LNCaP). The cell lines were maintained in plastic vessels in the DMEM medium (5 g/l glucose, 2 mM glutamine, 100 U/mL penicillin, 100 µg/mL streptomycin, 10% foetal calf serum and sodium bicarbonate) for cell cultures. The 80 µL of cell suspensions (ca. 1.25 × 10^5 cells per mL) were pipetted onto 96-well plastic microtitration plates. These were further pre-incubated at 37 °C in the CO2 atmosphere for 24 hours. The tested copper complexes and cisplatin, used as positive and therapeutic standard, were dissolved in N,N'-dimetylformamide in the concentrations up to 50 mM which served as stock solutions. For the experiment, the stock solutions were diluted 1000 x in the incubation medium (maximum concentration of 50.0 µM). After removal of the cultivation media, the mixtures of appropriate concentration were added to the cancer cells for the incubation period of 24 hours. The MTT analysis was performed spectrophotometrically (TECAN, Schoeller Instruments LLC) at 540 nm.
(§2) The concentrations of the tested complexes (µM) toxic for 50% of cancer cells (inhibition concentration IC50) were calculated from the dose-response curves.
The determination of in vitro anticancer activity of the studied compounds 1-6 and cisplatin against human lung adenocarcinoma cell line (A549) was performed by the MTT assay.
In general terms: Formazan colour is commonly taken as a measure of viable cells.

In test [2] the test system is human malignant melanoma cancer cell line (G361). In words: MTT assay, in vitro anticancer activity, G361. The conditions noted are these: G361 cells, 24 hours incubation, read-out: inhibition concentrations IC50. As for the experimental part:
as §1, with “The 80 µL of cell suspensions (ca. 1.25 × 10^5 cells per mL) were pipetted onto 96-well plastic microtitration plates.” left out

In test [3] the test system is human cervix epitheloid carcinoma cell line (HeLa). Kind of test: MTT assay, in vitro anticancer activity, HeLa. The conditions noted are these: HeLa cells, 24 hours incubation, read-out: inhibition concentrations IC50. The method, then:
as §1, §2
The determination of in vitro anticancer activity of the studied compounds 1-6 and cisplatin against human cervix epitheloid carcinoma cell line (HeLa) was performed by the MTT assay.

Test [4] concerns human ovarian carcinoma cell line (A2780). Kind of test: MTT assay, in vitro anticancer activity, A2780. The conditions noted are these: A2780 cells, 24 hours incubation, read-out: inhibition concentrations IC50. As for the experimental part:
as §1, §2
The determination of in vitro anticancer activity of the studied compounds 1-6 and cisplatin against human ovarian carcinoma cell line (A2780) was performed by the MTT assay.

Test [5] deals with human cisplatin-resistant ovarian carcinoma cell line (A2780R). In words: MTT assay, in vitro anticancer activity, A2780R. Particulars: A2780R cells, 24 hours incubation, read-out: inhibition concentrations IC50. The method, then: as §1, §2
The determination of in vitro anticancer activity of the studied compounds 1-6 and cisplatin against human cisplatin-resistant ovarian carcinoma cell line (A2780R) was performed by the MTT assay.

Test [6] deals with human prostate carcinoma cell line (LNCaP). In words: MTT assay, in vitro anticancer activity, LNCaP. Particulars: LNCaP cells, 24 hours incubation, read-out: inhibition concentrations IC50. As for the experimental part:
as §1, §2
The determination of in vitro anticancer activity of the studied compounds 1-6 and cisplatin against human prostate carcinoma cell line (LNCaP) was performed by the MTT assay.

SMILES strings stand for the structures.

Take `N.N.[Cl][Pt][Cl]` [cisplatin, cis-diammine-dichlorido platinum(II) complex, reference compound]: the IC50 in test [1] is 25800 ± 7100 nM; in test [2] it was 3400 ± 100 nM; in test [3] it was 10000 ± 2600 nM; in test [4], 12000 ± 800 nM; in test [5], 27000 ± 4600 nM; in test [6], 3800 ± 1500 nM.
For the compound `O=[N+]([O-])[O-].O=c1c([O-])c(-c2ccccc2)[nH]c2ccccc12.[Cu+2].c1cnc2c(c1)ccc1cccnc12` [complex 1, (2-phenyl-4-oxo-1,4-dihydroquinolin-3-olato-κ^2O^3:O^4)(1,10-phenanthroline-κ^2N^1:N^10)copper(II) nitrate monohydrate], the IC50 was found to be 2500 ± 400 nM in test [1]; 820 ± 150 nM in test [2]; 2900 ± 300 nM in test [3]; 650 ± 280 nM in test [4]; 830 ± 300 nM in test [5]; 2400 ± 600 nM in test [6].
For `Cc1cc2cccnc2c2ncccc12.O=[N+]([O-])[O-].O=c1c([O-])c(-c2ccccc2)[nH]c2ccccc12.[Cu+2]` [complex 2, (2-phenyl-4-oxo-1,4-dihydroquinolin-3-olato-κ^2O^3:O^4)(5-methyl-1,10-phenanthroline-κ^2N^1:N^10)copper(II) nitrate monohydrate], the IC50 in test [1] is 2500 ± 600 nM; in test [2], 530 ± 220 nM; in test [3], 2600 ± 400 nM; in test [4], 380 ± 30 nM; in test [5] it was 780 ± 70 nM; in test [6], 2100 ± 600 nM.
Take `O=[N+]([O-])[O-].O=c1c([O-])c(-c2ccccc2)[nH]c2ccccc12.[Cu+2].c1ccc(-c2ccnc3c2ccc2c(-c4ccccc4)ccnc23)cc1` [complex 3, (2-phenyl-4-oxo-1,4-dihydroquinolin-3-olato-κ^2O^3:O^4)(4,7-diphenyl-1,10-phenanthroline-κ^2N^1:N^10)copper(II) nitrate monohydrate]: the IC50 in test [1] amounted to 1700 ± 300 nM; in test [2], 960 ± 30 nM; in test [3] it was 1000 ± 200 nM; in test [4], 660 ± 70 nM; in test [5] it was 730 ± 90 nM; in test [6], 740 ± 210 nM.
For `F[B-](F)(F)F.O=c1c([O-])c(-c2ccccc2)[nH]c2ccccc12.[Cu+2].c1cnc2c(c1)ccc1cccnc12` [complex 4, (2-phenyl-4-oxo-1,4-dihydroquinolin-3-olato-κ^2O^3:O^4) (1,10-phenanthroline-κ^2N^1:N^10)copper(II) tetrafluoroborate], the IC50 in test [1] came out at 3900 ± 1200 nM; in test [2] it was 640 ± 200 nM; in test [3], 2700 ± 600 nM; in test [4], 520 ± 100 nM; in test [5], 1700 ± 600 nM; in test [6] it was 1900 ± 600 nM.
For `Cc1cc2cccnc2c2ncccc12.F[B-](F)(F)F.O=c1c([O-])c(-c2ccccc2)[nH]c2ccccc12.[Cu+2]` [complex 5, (2-phenyl-4-oxo-1,4-dihydroquinolin-3-olato-K^2O^3:O^4)(5-methyl-1,10-phenanthroline-κ^2N^1:N^10)copper(II) tetrafluoroborate monohydrate], the IC50 in test [1] amounted to 2500 ± 600 nM; in test [2], 530 ± 90 nM; in test [3] it was 2400 ± 1000 nM; in test [4], 360 ± 50 nM; in test [5], 560 ± 150 nM; in test [6], 1500 ± 600 nM.
Regarding `F[B-](F)(F)F.O=c1c([O-])c(-c2ccccc2)[nH]c2ccccc12.[Cu+2].c1ccc(-c2ccnc3c2ccc2c(-c4ccccc4)ccnc23)cc1` [complex 6, (2-phenyl-4-oxo-1,4-dihydroquinolin-3-olato-κ^2O^3:O^4) (4,7-diphenyl-1,10-phenanthroline-κ^2N^1:N^10) copper(II) tetrafluoroborate], the IC50 in test [1] came to 1300 ± 400 nM; in test [2], 720 ± 60 nM; in test [3], 1300 ± 400 nM; in test [4] it was 570 ± 110 nM; in test [5], 700 ± 200 nM; in test [6], 620 ± 80 nM.
